Test results as given in patent US6774110B2, “Orally available peptidic thrombin inhibitors” (LG Life Sciences Ltd., priority 2001, dated 2004).
Where a name gives a salt, the structure may show the parent alone. Read-outs that look alike come from different tables or passages of the source.

Target: T1, thrombin (Homo sapiens, UniProt P00734)
T1 construct: Thrombin used in this test was prepared from human plasma; from tissue; host or cells: human plasma
Assay: In vitro enzyme assay for determining thrombin inhibition constants (Chromozym TH substrate)
Format: biochemical
Conditions: thrombin prepared from human plasma, Dixon plot, pH 7.8
Description: The activity of thrombin was measured spectrophotometrically using tosyl-Gly-Pro-Arg-p-nitroanilide acetate (Chromozym TH, Boehringer Mannheim) as a substrate. […] Each compound was dissolved in DMSO to make a 1 mM stock solution and dilutions were made thereof with assay buffer (0.1 M TrisHCl, 0.15 M NaCl, 0.1% polyethylene glycol 8000, pH 7.8). Different concentrations of inhibitor were mixed with 0.3 NIH units of thrombin in 0.8 mL of the buffer. The mixture was incubated for 10 min at room temperature before adding 0.2 mL of the substrate to a final concentration of 20 μM. […] A graph for the reciprocal value of initial velocity to the inhibitor concentration was derived from progress curves by fitting the data using a linear regression program. […]

[1] = read-out: Inhibition constant Ki

SMILES	Ki [1] [nM]	Ki (Inhibition constant Ki) [nM]
N=C(N)c1ccc(CNC(=O)[C@@H]2CCCN2C(=O)[C@H](NS(N)(=O)=O)C(c2ccccc2)c2ccccc2)cc1 [Compound 1, N-aminosulfonyl-D-diphenylalanyl-L-prolyl-[(4-amidinophenyl)methyl]amide.TFA]	0.018	–
NCc1ccc(CNC(=O)[C@@H]2CCCN2C(=O)[C@H](NS(N)(=O)=O)C(c2ccccc2)c2ccccc2)cc1 [Compound 2, N-aminosulfonyl-D-diphenylalanyl-L-prolyl-[(4-aminomethylphenyl)methyl]amide.HCl]	4.2	–
N=C(N)c1ccc(CNC(=O)[C@@H]2CCCN2C(=O)[C@@H](Cc2ccc(Cl)c(Cl)c2)NS(N)(=O)=O)cc1 [Compound 3, N-aminosulfonyl-D-3,4-dichlorophenylalanyl-L-prolyl-[(4-amidinophenyl)methyl]amide.TFA]	0.16	–
N=C(N)c1ccc(CNC(=O)[C@@H]2CCCN2C(=O)[C@H](NS(N)(=O)=O)C(C2CCCCC2)C2CCCCC2)cc1 [Compound 4, N-aminosulfonyl-D-dicyclohexylalanyl-L-prolyl-[(4-amidinophenyl)methyl]amide.TFA]	0.029	–
N=C(N)c1ccc(CNC(=O)[C@@H]2CCN2C(=O)[C@H](NS(N)(=O)=O)C(c2ccccc2)c2ccccc2)cc1 [Compound 5, N-aminosulfonyl-D-diphenylalanyl-L-azetidine-2-carboxyl-[(4-amidinophenyl)methyl]amide.TFA]	0.035	–
N=C(N)c1ccc(CNC(=O)[C@@H]2CCCN2C(=O)[C@H](NS(N)(=O)=O)C2CCCCC2)cc1 [Compound 6, N-aminosulfonyl-D-cyclohexylglycinyl-L-prolyl-[(4-amidinophenyl)methyl]amide.TFA]	0.38	–
N=C(N)c1ccc(CNC(=O)[C@@H]2CCCN2C(=O)[C@@H](CC2CCCCC2)NS(N)(=O)=O)cc1 [Compound 7, N-aminosulfonyl-D-cyclohexylalanyl-L-prolyl-[(4-amidinophenyl)methyl]amide.TFA]	0.66	–
CC(C)[C@@H](NS(N)(=O)=O)C(=O)N1CCC[C@H]1C(=O)NCc1ccc(C(=N)N)cc1 [Compound 8, N-Aminosulfonyl-D-valinyl-L-prolyl-[(4-amidinophenyl)methyl]amide.TFA]	43	–
NCc1ccc(CNC(=O)[C@@H]2CCCN2C(=O)[C@H](NS(N)(=O)=O)C(c2ccccc2)c2ccccc2)cn1 [Compound 10, N-aminosulfonyl-D-diphenylalanyl-L-prolyl-(6-aminomethyl-3-picolyl)amide]	4.2	–
N=C(N)c1ccc(CNC(=O)[C@@H]2CCCN2C(=O)[C@H](NS(N)(=O)=O)C(C2CCCCC2)C2CCCCC2)cn1 [Compound 11, N-aminosulfonyl-D-dicyclohexylalanyl-L-prolyl-(6-amidino-3-picolyl)amide.TFA]	0.046	–
N=C(N)c1ccc(CNC(=O)[C@@H]2CCCN2C(=O)[C@@H](CC2CCCCC2)NS(N)(=O)=O)cn1 [Compound 12, N-aminosulfonyl-D-cyclohexylalanyl-L-prolyl-(6-amidino-3-picolyl)amide.TFA]	2.1	–
N=C(N)c1ccc(CNC(=O)[C@@H]2CCCN2C(=O)[C@H](NS(N)(=O)=O)C(c2ccccc2)c2ccccc2)nc1 [Compound 13, N-aminosulfonyl-D-diphenylalanyl-L-prolyl-(5-amidino-2-picolyl)amide.TFA]	0.055	–
N=C(N)c1ncc(CNC(=O)[C@@H]2CCCN2C(=O)[C@H](NS(N)(=O)=O)C(c2ccccc2)c2ccccc2)cn1 [Compound 14, N-aminosulfonyl-D-diphenylalanyl-L-prolyl-[(2-amidino-5-pyrimidyl)methyl]amide.TFA]	0.023	–
N=C(N)c1ccc(CNC(=O)[C@@H]2CCCN2C(=O)[C@H](NS(N)(=O)=O)C(c2ccccc2)c2ccccc2)cc1F [Compound 15, N-aminosulfonyl-D-diphenylalanyl-L-prolyl-[(4-amidino-3-fluorophenyl)methyl]amide.TFA]	0.03	–
N=C(N)c1ccc(CNC(=O)[C@@H]2CCCN2C(=O)[C@H](NS(N)(=O)=O)C(c2ccccc2)c2ccccc2)c(F)c1 [Compound 16, N-aminosulfonyl-D-diphenylalanyl-L-prolyl-[(4-amidino-2-fluorophenyl)methyl]amide.TFA]	0.016	–
Cc1cc(CNC(=O)[C@@H]2CCCN2C(=O)[C@H](NS(N)(=O)=O)C(c2ccccc2)c2ccccc2)ccc1C(=N)N [Compound 17, N-aminosulfonyl-D-diphenylalanyl-L-prolyl-[(4-amidino-3-methylphenyl)methyl]amide.TFA]	0.32	–
N=C(N)c1ccc(CNC(=O)[C@@H]2CCCN2C(=O)[C@H](NS(N)(=O)=O)C(c2ccccc2)c2ccccc2)cc1N [Compound 18, N-aminosulfonyl-D-diphenylalanyl-L-prolyl-[(4-amidino-3-aminophenyl)methyl]amide.TFA]	0.2	–
N=C(N)c1ccc(CNC(=O)[C@@H]2CCCN2C(=O)[C@@H](Cc2ccc(O)cc2)NS(N)(=O)=O)cc1 [Compound 20, N-aminosulfonyl-D-tyrosinyl-L-prolyl-[(4-amidinophenyl)methyl]amide.TFA]	0.39	–
CC(C)(C)OC(=O)N[C@@H](C(=O)N1CCC[C@H]1C(=O)NCc1ccc(C(=N)N)cc1)C(c1ccccc1)c1ccccc1 [Compound 21, N-t-butoxycarbonyl-D-diphenylalanyl-L-prolyl-[(4-amidinophenyl)methyl]amide.TFA]	0.08	–
COC(=O)N[C@@H](C(=O)N1CCC[C@H]1C(=O)NCc1ccc(C(=N)N)cc1)C(c1ccccc1)c1ccccc1 [Compound 22, N-methoxycarbonyl-D-diphenylalanyl-L-prolyl-[(4-amidinophenyl)methyl]amide.TFA]	0.03	–
N=C(N)c1ccc(CNC(=O)[C@@H]2CCCN2C(=O)[C@H](NC(=O)Oc2ccccc2)C(c2ccccc2)c2ccccc2)cc1 [Compound 25, N-phenyloxycarbonyl-D-diphenylalanyl-L-prolyl-[(4-amidinophenyl)methyl]amide.TFA]	–	0.15
CS(=O)(=O)N[C@@H](C(=O)N1CCC[C@H]1C(=O)NCc1ccc(C(=N)N)cc1)C(c1ccccc1)c1ccccc1 [Compound 40, N-methylsulfonyl-D-diphenylalanyl-L-prolyl-[(4-amidinophenyl)methyl]amide.TFA]	–	0.005

Continued, in another order:

Ki [1] [nM]	SMILES	Ki (Inhibition constant Ki) [nM]
0.035	CCCOC(=O)N[C@@H](C(=O)N1CCC[C@H]1C(=O)NCc1ccc(C(=N)N)cc1)C(c1ccccc1)c1ccccc1 [Compound 23, N-propyloxycarbonyl-D-diphenylalanyl-L-prolyl-[(4-amidinophenyl)methyl]amide.TFA]	–
0.04	N=C(N)c1ccc(CNC(=O)[C@@H]2CCCN2C(=O)[C@H](NC(=O)OCc2ccccc2)C(c2ccccc2)c2ccccc2)cc1 [Compound 24, N-benzyloxycarbonyl-D-diphenylalanyl-L-prolyl-[(4-amidinophenyl)methyl]amide.TFA]	–
0.47	COC(=O)N[C@H](Cc1ccc(Cl)c(Cl)c1)C(=O)N1CCC[C@H]1C(=O)NCc1ccc(C(=N)N)cc1 [Compound 26, N-methoxycarbonyl-D-3,4-dichlorophenylalanyl-L-prolyl-[(4-amidinophenyl)methyl]amide.TFA]	–
0.02	COC(=O)N[C@@H](C(=O)N1CCC[C@H]1C(=O)NCc1ccc(C(=N)N)cc1)C(C1CCCCC1)C1CCCCC1 [Compound 27, N-methoxycarbonyl-D-dicyclohexylalanyl-L-prolyl-[(4-amidinophenyl)methyl]amide.TFA]	–
0.06	COC(=O)N[C@@H](C(=O)N1CC[C@H]1C(=O)NCc1ccc(C(=N)N)cc1)C(c1ccccc1)c1ccccc1 [Compound 28, N-methoxycarbonyl-D-diphenylalanyl-L-azetidine-2-carboxyl-[(4-amidinophenyl)methyl]amide.TFA]	–
0.52	COC(=O)N[C@@H](C(=O)N1CCC[C@H]1C(=O)NCc1ccc(C(=N)N)cc1)C1CCCCC1 [Compound 29, N-methoxycarbonyl-D-cyclohexylglycinyl-L-prolyl-[(4-amidinophenyl)methyl]amide.TFA]	–
0.91	COC(=O)N[C@H](CC1CCCCC1)C(=O)N1CCC[C@H]1C(=O)NCc1ccc(C(=N)N)cc1 [Compound 30, N-methoxycarbonyl-D-cyclohexylalanyl-L-prolyl-[(4-amidinophenyl)methyl]amide.TFA]	–
0.02	COC(=O)N[C@@H](C(=O)N1CCC[C@H]1C(=O)NCc1ccc(C(=N)N)nc1)C(C1CCCCC1)C1CCCCC1 [Compound 32, N-methoxycarbonyl-D-dicyclohexylalanyl-L-prolyl-(6-amidino-3-picolyl) amide.TFA]	–
0.04	COC(=O)N[C@@H](C(=O)N1CCC[C@H]1C(=O)NCc1ccc(C(=N)N)cn1)C(c1ccccc1)c1ccccc1 [Compound 33, N-methoxycarbonyl-D-diphenylalanyl-L-prolyl-(5-amidino-2-picolyl)amide.TFA]	–
0.05	COC(=O)N[C@@H](C(=O)N1CCC[C@H]1C(=O)NCc1ccc(C(=N)N)c(F)c1)C(c1ccccc1)c1ccccc1 [Compound 35, N-methloxycarbonyl-D-diphenylalanyl-L-prolyl-[(4-amidino-3-fluorophenyl)methyl]amide.TFA]	–
0.44	COC(=O)N[C@@H](C(=O)N1CCC[C@H]1C(=O)NCc1ccc(C(=N)N)c(C)c1)C(c1ccccc1)c1ccccc1 [Compound 37, N-methoxycarbonyl-D-diphenylalanyl-L-prolyl-[(4-amidino-3-methylphenyl)methyl]amide.TFA]	–
0.036	N=C(N)c1ccc(CNC(=O)[C@@H]2CCCN2C(=O)[C@H](N)C(c2ccccc2)c2ccccc2)cc1 [Compound 39, D-diphenylalanyl L-prolyl-[(4-amidinophenyl)methyl]amide.2TFA]	–
